Values after ≈ are worked out from the molar mass of the structure shown. Residues, ends and D or L forms follow the SMILES beside them.
Assays:
[1] = test system: Staphylococcus aureus USA300; conditions: S. aureus USA300
Method: (§1) The MIC assays were performed as previously described ([43]). Briefly, peptides were plated in a 2-fold dilution series (50 μL/well) of Mueller-Hinton broth (MHB) in Costar 96-well cell culture plates (Corning, NY, USA). Three repeats were set for each concentration. E. coli ATCC 25922, A. hydrophila ATCC 7966, P. aeruginosa PAO1, P. aeruginosa FRD1, S. aureus ATCC 25923, S. agalactiae ATCC 13813, S. pneumoniae ATCC 49619, methicillin-resistant S. aureus ATCC 43300, and methicillin-resistant S. aureus USA300 were cultured in Luria-Bertani (LB) medium, while K. pneumoniae CMCC46117 was cultured in tryptic soy broth (TSB) medium. Incubation was done at 37°C and 150 × g for 12 h. Bacteria were transferred to fresh MHB at a ratio of 1% (vol/vol) and incubated to reach a logarithmic growth phase. Then, 50 μL of a bacterial suspension at 4 × 10^6 CFU/mL was added to each well. After incubation at 37°C for 22 ± 2 h, turbidity was measured using an EnSpire multimode plate reader (PerkinElmer, Singapore) at 595 nm.

[2] = test system: P. aeruginosa FRD1; format: cell-based, Pseudomonas aeruginosa; conditions: FRD1, 2 h
Method: as §1, with “After incubation at 37°C for 22 ± 2 h, turbidity was measured using an EnSpire multimode plate reader (PerkinElmer, Singapore) at 595 nm.” left out

[3] = test system: Aeromonas hydrophila ATCC 7966; format: cell-based; conditions: ATCC 7966, 2 h
Method: as §1, with “After incubation at 37°C for 22 ± 2 h, turbidity was measured using an EnSpire multimode plate reader (PerkinElmer, Singapore) at 595 nm.” left out

[4] = test system: Escherichia coli ATCC 25922; format: cell-based; conditions: ATCC 25922, 2 h
Method: as §1, with “After incubation at 37°C for 22 ± 2 h, turbidity was measured using an EnSpire multimode plate reader (PerkinElmer, Singapore) at 595 nm.” left out

[5] = test system: Klebsiella pneumoniae CMCC46117; format: cell-based; conditions: CMCC46117, 2 h
Method: as §1, with “After incubation at 37°C for 22 ± 2 h, turbidity was measured using an EnSpire multimode plate reader (PerkinElmer, Singapore) at 595 nm.” left out

[6] = test system: Pseudomonas aeruginosa PAO1; format: cell-based; conditions: PAO1, 2 h
Method: as §1, with “After incubation at 37°C for 22 ± 2 h, turbidity was measured using an EnSpire multimode plate reader (PerkinElmer, Singapore) at 595 nm.” left out

[7] = test system: Staphylococcus aureus ATCC 25923; format: cell-based; conditions: ATCC 25923, 2 h
Method: as §1, with “After incubation at 37°C for 22 ± 2 h, turbidity was measured using an EnSpire multimode plate reader (PerkinElmer, Singapore) at 595 nm.” left out

[8] = test system: Streptococcus agalactiae ATCC 13813; format: cell-based; conditions: ATCC 13813, 2 h
Method: as §1, with “After incubation at 37°C for 22 ± 2 h, turbidity was measured using an EnSpire multimode plate reader (PerkinElmer, Singapore) at 595 nm.” left out

[9] = test system: Streptococcus pneumoniae ATCC 49619; format: cell-based; conditions: ATCC 49619, 2 h
Method: as §1, with “After incubation at 37°C for 22 ± 2 h, turbidity was measured using an EnSpire multimode plate reader (PerkinElmer, Singapore) at 595 nm.” left out

[10] = test system: Methicillin-resistant S. aureus ATCC 43300; format: cell-based, Staphylococcus aureus; conditions: ATCC 43300, 2 h
Method: as §1, with “After incubation at 37°C for 22 ± 2 h, turbidity was measured using an EnSpire multimode plate reader (PerkinElmer, Singapore) at 595 nm.” left out

[11] = test system: Methicillin-resistant S. aureus USA300; format: cell-based, Staphylococcus aureus; conditions: USA300, 2 h
Method: as §1, with “After incubation at 37°C for 22 ± 2 h, turbidity was measured using an EnSpire multimode plate reader (PerkinElmer, Singapore) at 595 nm.” left out

[12] = test system: E. coli ATCC 25922; test: SYTOX green membrane permeability assay; format: cell-based, Escherichia coli; conditions: E. coli ATCC 25922, 5 μM SYTOX green, read every 1 min
Method: The SYTOX green staining assay was performed to assess peptide-associated membrane damage ([47], [52]). E. coli ATCC 25922 and S. aureus ATCC 25923 cells in the mid-logarithmic phase were collected, washed thrice, and resuspended (5 × 10^7 CFU/mL) in buffer B (10 mM Tris-HCl, pH 7.4, at 25°C). The bacterial suspensions were mixed with 5 μM SYTOX green and incubated for 15 min at room temperature in the dark. Then, the mixtures were added to black, clear-bottom 96-well plates at a density of 100 μL/well. After peptide addition, SYTOX green uptake was monitored using an EnSpire multimode plate reader (PerkinElmer, Singapore) with an excitation wavelength of 485 nm and an emission wavelength of 520 nm. Each measurement interval was 1 min, totaling 30 to 60 times. Melittin was used as the positive control, while bovine serum albumin (BSA) was the negative control.

| SMILES | MIC in 6 μM NH4Cl ([1]; 6 μM NH4Cl) | MIC in 1 mM MgCl2 ([1]; 1 mM MgCl2) | MIC in 2.5 mM CaCl2 ([1]; 2.5 mM CaCl2) | MIC in 4.5 mM KCl ([1]; 4.5 mM KCl) | MIC in 150 mM NaCl ([1]; 150 mM NaCl) | MIC in MS at concn 10% ([1]; 10% mouse serum) | MIC in MS at concn 20% ([1]; 20% mouse serum) | MIC in MS at concn 40% ([1]; 40% mouse serum) | MIC in Control ([1]; control, bacteria treated with peptide only) | MIC [2] | MIC [3] | MIC [4] | MIC [5] | MIC [6] | MIC [7] | MIC [8] | MIC [9] | MIC [10] | MIC [11] | SYTOX green fluorescence intensity [12] |
| --- | --- | --- | --- | --- | --- | --- | --- | --- | --- | --- | --- | --- | --- | --- | --- | --- | --- | --- | --- | --- |
| CC[C@H](C)[C@H](NC(=O)CN)C(=O)NCC(=O)N[C@@H](C)C(=O)N[C@H](C(=O)N[C@@H](CC(C)C)C(=O)N[C@@H](CCCCN)C(=O)N[C@H](C(=O)N[C@@H](CC(C)C)C(=O)N[C@H](C(=O)N[C@H](C(=O)NCC(=O)N[C@@H](CC(C)C)C(=O)N1CCC[C@H]1C(=O)N[C@@H](C)C(=O)N[C@@H](CC(C)C)C(=O)N[C@H](C(=O)N[C@@H](CO)C(=O)N[C@@H](Cc1c[nH]c2ccccc12)C(=O)N[C@H](C(=O)N[C@@H](CCCCN)C(=O)N[C@@H](CCCNC(=N)N)C(=O)N[C@@H](CCCCN)C(=O)N[C@@H](CCCNC(=N)N)C(=O)N[C@@H](CCC(N)=O)C(=O)N[C@@H](CCC(N)=O)C(N)=O)[C@@H](C)CC)[C@@H](C)CC)[C@@H](C)O)[C@@H](C)O)C(C)C)C(C)C [Melittin] | 6.25 µg/mL (≈ 2.2 µM) | 6.25 µg/mL (≈ 2.2 µM) | 6.25 µg/mL (≈ 2.2 µM) | 6.25 µg/mL (≈ 2.2 µM) | 6.25 µg/mL (≈ 2.2 µM) | 25.00 µg/mL (≈ 8.78 µM) | 50.00 µg/mL (≈ 17.6 µM) | 200.00 µg/mL (≈ 70.3 µM) | 6.25 µg/mL (≈ 2.2 µM) | – | – | – | – | – | – | – | – | – | – | – |
| CC[C@H](C)[C@H](NC(=O)[C@H](CCCCN)NC(=O)[C@H](CCSC)NC(=O)[C@H](C)NC(=O)[C@H](CC(C)C)NC(=O)[C@H](Cc1c[nH]cn1)NC(=O)[C@H](CCCNC(=N)N)NC(=O)[C@H](CCCCN)NC(=O)[C@H](CCCCN)NC(=O)[C@H](CCCCN)NC(=O)[C@H](CCSC)NC(=O)[C@H](CC(C)C)NC(=O)[C@H](CC(C)C)NC(=O)[C@H](CC(=O)O)NC(=O)[C@H](CC(C)C)NC(=O)[C@H](Cc1c[nH]cn1)NC(=O)[C@H](CCCCN)NC(=O)[C@H](CCCCN)NC(=O)[C@@H](NC(=O)[C@H](CCCNC(=N)N)NC(=O)[C@@H]1CCCN1C(=O)[C@H](Cc1c[nH]cn1)NC(=O)[C@H](C)N)[C@@H](C)CC)C(=O)N[C@@H](C)C(=O)N[C@@H](C)C(=O)N1CCC[C@H]1C(=O)O [chCCL27a-26] (H-AHPRIKKHLDLLMKKKRHLAMKIAAP-OH; N-terminus and C-terminus assumed) | – | – | – | – | – | – | – | – | – | 25.00 µg/mL (≈ 8.21 µM) | >50.00 µg/mL | 25.00 µg/mL (≈ 8.21 µM) | >50.00 µg/mL | 25.00 µg/mL (≈ 8.21 µM) | 12.50 µg/mL (≈ 4.1 µM) | 25.00 µg/mL (≈ 8.21 µM) | 25.00 µg/mL (≈ 8.21 µM) | 25.00 µg/mL (≈ 8.21 µM) | 25.00 µg/mL (≈ 8.21 µM) | fluorescence trends similar to the trends in E. coli cells treated with lcCCL28-25 |
| CSCC[C@H](NC(=O)[C@H](CCCNC(=N)N)NC(=O)[C@H](CCCCN)NC(=O)[C@H](CCSC)NC(=O)[C@H](CC(C)C)NC(=O)[C@H](CCCCN)NC(=O)[C@H](CCC(N)=O)NC(=O)[C@H](CC(C)C)NC(=O)[C@H](Cc1ccccc1)NC(=O)[C@H](CCC(N)=O)NC(=O)[C@H](CCC(=O)O)NC(=O)[C@H](CCSC)NC(=O)[C@H](CCCCN)NC(=O)[C@@H]1CCCN1C(=O)[C@@H](NC(=O)[C@H](C)N)[C@@H](C)O)C(=O)N[C@@H](C)C(=O)N[C@@H](CCCNC(=N)N)C(=O)N[C@@H](CC(C)C)C(=O)N[C@@H](CCCCN)C(=O)N[C@@H](C)C(=O)N[C@@H](CO)C(=O)N[C@@H](C)C(=O)N[C@H](C(=O)O)C(C)C [drCCL27b-24] (H-ATPKMEQFLQKLMKRMARLKASAV-OH; N-terminus and C-terminus assumed) | – | – | – | – | – | – | – | – | – | 25.00 µg/mL (≈ 9 µM) | >50.00 µg/mL | 25.00 µg/mL (≈ 9 µM) | >50.00 µg/mL | 25.00 µg/mL (≈ 9 µM) | 25.00 µg/mL (≈ 9 µM) | 25.00 µg/mL (≈ 9 µM) | 25.00 µg/mL (≈ 9 µM) | 25.00 µg/mL (≈ 9 µM) | 25.00 µg/mL (≈ 9 µM) | fluorescence trends similar to the trends in E. coli cells treated with lcCCL28-25 |
| CC[C@H](C)[C@H](NC(=O)[C@H](C)NC(=O)[C@H](CCCCN)NC(=O)[C@H](CCSC)NC(=O)[C@H](CCCCN)NC(=O)[C@H](CC(C)C)NC(=O)[C@@H]1CCCN1C(=O)[C@H](C)N)C(=O)N[C@@H](CC(C)C)C(=O)N[C@@H](CCC(=O)O)C(=O)N[C@H](C(=O)N[C@H](C(=O)N[C@@H](Cc1c[nH]cn1)C(=O)N[C@@H](CCCNC(=N)N)C(=O)N[C@@H](CCCNC(=N)N)C(=O)N[C@@H](CCSC)C(=O)N[C@@H](CCCCN)C(=O)N[C@@H](CCC(N)=O)C(=O)N[C@@H](CC(N)=O)C(=O)N[C@@H](CCCCN)C(=O)N[C@@H](CCSC)C(=O)N[C@@H](CCCCN)C(=O)N[C@@H](C)C(=O)N[C@@H](C)C(=O)N[C@@H](Cc1ccccc1)C(=O)O)C(C)C)[C@@H](C)CC [smCCL27b-25] (H-APLKMKAILEIVHRRMKQNKMKAAF-OH; N-terminus and C-terminus assumed) | – | – | – | – | – | – | – | – | – | 25.00 µg/mL (≈ 8.46 µM) | >50.00 µg/mL | 50.00 µg/mL (≈ 16.9 µM) | >50.00 µg/mL | 50.00 µg/mL (≈ 16.9 µM) | 25.00 µg/mL (≈ 8.46 µM) | 25.00 µg/mL (≈ 8.46 µM) | 25.00 µg/mL (≈ 8.46 µM) | >50.00 µg/mL | 25.00 µg/mL (≈ 8.46 µM) | increased rapidly within 20 min |
| CC[C@H](C)[C@H](NC(=O)[C@H](CC(=O)O)NC(=O)[C@H](CCCCN)NC(=O)[C@H](Cc1ccccc1)NC(=O)[C@@H](NC(=O)[C@@H](NC(=O)[C@H](CCC(N)=O)NC(=O)[C@H](CC(=O)O)NC(=O)[C@@H](N)C(C)C)[C@@H](C)O)C(C)C)C(=O)N[C@@H](Cc1c[nH]c2ccccc12)C(=O)N[C@@H](Cc1c[nH]c2ccccc12)C(=O)N[C@@H](CCCNC(=N)N)C(=O)N[C@@H](CCSC)C(=O)N[C@@H](CCCCN)C(=O)N[C@@H](CCC(N)=O)C(=O)N[C@@H](Cc1c[nH]c2ccccc12)C(=O)N[C@@H](CCCCN)C(=O)N[C@@H](CCC(N)=O)C(=O)N[C@@H](CCCNC(=N)N)C(=O)N[C@H](C(=O)N[C@@H](CCCCN)C(=O)N[C@@H](CCCCN)C(=O)N[C@@H](CCCNC(=N)N)C(=O)N[C@@H](C)C(=O)N[C@@H](C)C(=O)N[C@@H](CCCCN)C(=O)N[C@@H](Cc1ccc(O)cc1)C(=O)N[C@@H](CC(N)=O)C(=O)N[C@H](C(=O)O)C(C)C)C(C)C [trCCL28-29] (H-VDQTVFKDIWWRMKQWKQRVKKRAAKYNV-OH; N-terminus and C-terminus assumed) | – | – | – | – | – | – | – | – | – | 25.00 µg/mL (≈ 6.69 µM) | 25.00 µg/mL (≈ 6.69 µM) | 12.50 µg/mL (≈ 3.34 µM) | 25.00 µg/mL (≈ 6.69 µM) | 25.00 µg/mL (≈ 6.69 µM) | 12.50 µg/mL (≈ 3.34 µM) | 12.50 µg/mL (≈ 3.34 µM) | 25.00 µg/mL (≈ 6.69 µM) | 12.50 µg/mL (≈ 3.34 µM) | 12.5 µg/mL (≈ 3.34 µM) | increased rapidly within 20 min |
